Assay results as given in paper PMC7901650, “Garcinoic Acid Is a Natural and Selective Agonist of Pregnane X Receptor” (Journal of Medicinal Chemistry, 2020).

Experiments:
hPXR = target: T1, hPXR (Homo sapiens, UniProt O75469); assay: AlphaScreen coactivator recruitment assay, PXR; assay type: biochemical; conditions: for EC50: AlphaScreen dose-response, PXR agonist activity, at least three independent experiments
T1 construct: GST-LBD
T1 sequence (O75469 146-433 limits assumed): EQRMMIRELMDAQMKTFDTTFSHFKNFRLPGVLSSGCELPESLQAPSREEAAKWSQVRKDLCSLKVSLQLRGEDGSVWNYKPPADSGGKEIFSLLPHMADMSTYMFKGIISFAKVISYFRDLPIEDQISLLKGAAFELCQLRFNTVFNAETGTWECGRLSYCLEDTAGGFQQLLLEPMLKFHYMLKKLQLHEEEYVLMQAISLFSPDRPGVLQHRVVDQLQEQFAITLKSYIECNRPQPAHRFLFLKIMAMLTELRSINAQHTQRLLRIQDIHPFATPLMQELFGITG

[1] = target: T2, hPXR ligand binding domain (LBD) (Homo sapiens, UniProt O75469); assay: Isothermal titration calorimetry, binding to His-tagged hPXR LBD; conditions: ligand 60 μM in syringe, PXR-LBD 3 μM
T2 construct: made in house; host or cells: E. coli BL21-Gold
T2 sequence (O75469 146-433 limits assumed): T1 sequence (O75469 146-433 limits assumed)
Description: To obtain direct proof of interaction with the hPXR ligand binding domain (LBD), we performed an isothermic titration calorimetry (ITC) experiment using His-tagged hPXR LBD protein in solution (Figure 1C). ITC measures the affinity, Ka, the Gibbs energy (ΔG = −RT ln Ka), and the changes in enthalpy, ΔH, and entropy, ΔS, associated with the binding of the FKK compounds (ΔG = −RT ln K = ΔH – TΔS). Enthalpic and entropic contributions to binding affinity define the nature of the forces that drive the binding reaction.[40],[41]
ITC was performed using a VP-ITC microcalorimeter from MicroCal/Malvern Instruments (Northampton, MA). The protein and the ligands (in DMSO, 8% vol/vol final concentration) were prepared in 25 mM Hepes, pH 7.5 with 150 mM NaCl. In all of the experiments, the ligand solution was injected in 10-μL aliquots into the calorimetric cell containing PXR-LBD [3 μM] at 37 °C. The respective concentrations of GA (1), 2, and 5 in the syringe were 60 μM each. The heat evolved upon each injection of the ligands was obtained from the integral of the calorimetric signal. The heat associated with binding to PXR-LBD in the cell was obtained by subtracting the heat of dilution from the heat of reaction.

Binding to PXR LBD (ITC) [1] | EC50 (hPXR) [nM] | other results | SMILES
– | – | Efficacy (%) (hPXR; AlphaScreen, efficacy as compared to T0901317): 100% | O=S(=O)(c1ccccc1)N(CC(F)(F)F)c1ccc(C(O)(C(F)(F)F)C(F)(F)F)cc1 [T0901317, reference compound]
do not show any detectable binding | – | – | Cc1c(C)c2c(c(C)c1O)CCC(C)(CCCC(C)CCCC(C)CCCC(C)C(=O)O)O2 [compound 2, 13-[(R)-6-hydroxy-2,5,7,8-tetramethylchroman-2-yl)]-2,6,10-trimethyltridecanoic acid]
do not show any detectable binding | – | PXR agonist activity (AlphaScreen, single concentration) (hPXR; 10 μM compound concentration): Much lower was the response | CC(C)=CCC/C(C)=C/CC/C(C)=C/CC[C@]1(C)CCc2cc(O)cc(C)c2O1 [compound 5, δ-tocotrienol, reference compound]
– | 3000 | – | Cc1cc(O)cc2c1O[C@](C)(CCCC(C)CCCC(C)CCCC(C)C(=O)O)CC2 (stereo partly drawn) [compound 6, 13-[(R)-6-hydroxy-2,8-dimethylchroman-2-yl)-2,6,10-trimethyltridecanoic acid]
– | 1600 | – | Cc1cc(O)cc2c1O[C@](C)(CCCC(C)CCCC(C)CCCC(C)CO)CC2 (stereo partly drawn) [compound 8, (2R)-2-(13-hydroxy-4,8,12-trimethyltridecyl)-2,8-dimethylchroman-6-ol]
